Test results: US20230172981A1, “METHODS AND COMPOSITIONS FOR STIMULATION OF CHIMERIC ANTIGEN RECEPTOR T CELLS WITH HAPTEN LABELLED CELLS” (Seattle Children's Hospital (dba Seattle Children's …, priority 2020, published 2023)

Test system: CD19+K562 cells
Test: Cytokine release by antiFL CAR T cells with hapten-labeled cells
Assay type: cell-based
Settings: trend; hapten-labeled cells prepared with 5 μM FL-DHPE
Description: Hapten-labeled cells were prepared. CD19+K562 cells were incubated either overnight with 5 μM FL-DHPE or for 20 min with an CD19 antibody labeled with FITC. The hapten-labeled cells were incubated with either one of two antiFL CAR T cells (FITC-E2 scFv, or 4M5.3 scFv). […] Hudecek M, et al., (2013) Clin Cancer Res. 19:3153-64, which is incorporated by reference in its entirety.
The levels of cytokines released by the antiFL CAR T cells were determined. […] The levels of released IFN-γ, and TNF-α were lower for hapten-labeled cells contacted with the antiFL(4M5.3) CAR T cell.

CCCCCCCCCCCCCCCC(=O)OCC(COP(=O)(O)OCCNC(=S)Nc1ccc2c(c1)C(=O)OC21c2ccc(O)cc2Oc2cc(O)ccc21)OC(=O)CCCCCCCCCCCCCCC (stereo not shown) [FL-DHPE, N-(Fluorescein-5-Thiocarbamoyl)-1,2-Dihexadecanoyl-sn-Glycero-3-Phosphoethanolamine]
cytokine release induced, compared to cells prepared with CD19 antibody labeled with FITC: higher levels of cytokine release
